Assay results taken from patent US11098071B2, “GPR84 receptor antagonist and use thereof” (SHANGHAI INSTITUTE OF MATERIA MEDICA, CHINESE ACADEMY OF …, priority 2017, dated 2021).

Target: T1, GPR84 (Homo sapiens, UniProt Q9NQS5)
T1 construct: expressed in transfected cells; host or cells: HEK293
Assay: GPR84 calcium flow model (antagonism of agonist 6-OAU, Fluo-4 fluorescence)
Format: cell-based
Details: not given
Protocol: GPR84 antagonistic activity of the compounds of the invention was determined.
The human GPR84 cell line was obtained by transfecting a HEK293 cell line with a plasmid encoding GPR84 and Gα16 proteins. Fluorescent dye Fluo-4AM was purchased from Invitrogen.
Intracellular Ca^2+ ion is a very important second messenger of G protein-coupled receptor signaling pathway. […] Fluo-4 is a Ca^2+ ion-specific fluorescent probe that binds quantitatively to Ca^2+ ions and emits fluorescence. Therefore, the agonistic or antagonistic activity of the compound can be detected in a 96-well or 384-well flat-bottomed microplate using a fluorescence assay.
Detection of receptor inhibitory effect by GPR84 antagonist: After incubated with fluorescent dye Fluo-4, GPR84 cells were incubated with different concentrations of antagonistic compounds for a period of time to occupy the binding site of agonist to GPR84 (antagonistic binding site). A certain concentration of agonist (6-OAU) was added to compete with the antagonist compound for binding sites. […] The half-inhibitory concentration (IC50) of the compound was calculated by using GraphPad PRISM software.
The above ingredients were weighed and dissolved in ultrapure water. pH was adjusted to 7.4 by using hydrochloric acid or NaOH solution. The mixture was filtered and stored at 4° C. for one month.
The buffer was prepared on site.
The preparation of each milliliter of dye is as follows. 1 μL of 2 mM Fluo-4 AM was mixed with 10 μL of 3% Cremophor EL, then diluted with 1 mL of calcium buffer and mixed.
The cells were seeded at a density of 40,000 cells/well into a 96-well cell culture plate, and cultured for 24 hours or more to a cell density of 80 to 90% for experimental detection. The culture medium in the well to be tested was removed and 40 μL/well of freshly prepared dye was added and incubated in a 37-degree incubator for 40 min to 50 min.
The compound was formulated during cell incubation (this step can also be carried out in advance). The compound used as antagonist was diluted with calcium buffer freshly prepared before the experiment to 1.5 times of the final working concentration. The compound as agonist was diluted to 3 times of the final working concentration (if the compound is dissolved in DMSO, the final work concentration of DMSO shall not exceed 1%).
After the incubation step was completed, the dye was discarded, and the residue was washed with calcium buffer once and then replaced with 50 μL of calcium buffer containing different concentrations of antagonist and incubated for another 10 min.

T1 sequence (Q9NQS5 whole entry): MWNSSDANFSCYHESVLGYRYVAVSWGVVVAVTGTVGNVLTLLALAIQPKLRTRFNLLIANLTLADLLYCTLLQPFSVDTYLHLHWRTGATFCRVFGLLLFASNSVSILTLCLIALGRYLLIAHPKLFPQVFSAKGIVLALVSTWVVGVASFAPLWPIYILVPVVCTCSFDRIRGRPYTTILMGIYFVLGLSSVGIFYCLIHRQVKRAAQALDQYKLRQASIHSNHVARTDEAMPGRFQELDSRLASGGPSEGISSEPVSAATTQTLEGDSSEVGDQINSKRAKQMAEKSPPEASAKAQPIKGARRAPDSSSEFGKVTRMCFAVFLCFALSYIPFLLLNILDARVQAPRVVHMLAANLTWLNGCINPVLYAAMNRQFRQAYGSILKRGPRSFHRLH

SMILES | IC50 [nM]
O=P(O)(Oc1cc2ccccc2c2ccccc12)Oc1cc2ccccc2c2ccccc12 [CLH472] | 1000 to 10000
O=P(O)(Oc1c2ccccc2cc2ccccc12)Oc1c2ccccc2cc2ccccc12 [CLH472a] | 100 to 1000

Same assay, conditions: HEK293 cell line transfected with GPR84 and Gα16; agonist 6-OAU; Fluo-4; read-out: IC50 of the compound detected by the GPR84 calcium flow model

IC50 [nM] | SMILES
100 to 1000 | O=P(O)(OC1=Cc2ccccc2Oc2ccccc21)OC1=Cc2ccccc2Oc2ccccc21 [CLH482]
100 to 1000 | CN1c2ccccc2C=C(OP(=O)(O)OC2=Cc3ccccc3N(C)c3ccccc32)c2ccccc21 [CLH508]
0.1 to 100 | O=P(O)(OC1=Cc2ccccc2Sc2ccccc21)OC1=Cc2ccccc2Sc2ccccc21 [CLH514]
100 to 1000 | O=P(O)(O/C1=C/c2ccccc2/C=C\c2ccccc21)O/C1=C/c2ccccc2/C=C\c2ccccc21 [CLH524]
100 to 1000 | C=C1c2ccccc2C=C(OP(=O)(O)OC2=Cc3ccccc3C(=C)c3ccccc32)c2ccccc21 [CLH524a]
100 to 1000 | CC1c2ccccc2C=C(OP(=O)(O)OC2=Cc3ccccc3C(C)c3ccccc32)c2ccccc21 (stereo not drawn) [CLH528a]
100 to 1000 | O=P(O)(OC1=CC2=C(CCCC2)Sc2ccccc21)OC1=CC2=C(CCCC2)Sc2ccccc21 [CLH544]
100 to 1000 | O=P(O)(OC1=Cc2ccccc2SC2=C1CCCC2)OC1=Cc2ccccc2SC2=C1CCCC2 [CLH544a]
0.1 to 100 | O=P(O)(OC1=Cc2ccccc2Sc2sccc21)OC1=Cc2ccccc2Sc2sccc21 [CLH548]
0.1 to 100 | COc1cccc2c1Cc1ccccc1C=C2OP(=O)(O)OC1=Cc2ccccc2Cc2c(OC)cccc21 [CLH560]
0.1 to 100 | O=P(O)(OC1=Cc2ccccc2Sc2c(O)cccc21)OC1=Cc2ccccc2Sc2c(O)cccc21 [CLH568]
100 to 1000 | O=P(O)(OC1=Cc2ccccc2Sc2c(F)cccc21)OC1=Cc2ccccc2Sc2c(F)cccc21 [CLH572a]
100 to 1000 | O=P(O)(OC1=Cc2ccccc2Sc2cc(F)ccc21)OC1=Cc2ccccc2Sc2cc(F)ccc21 [CLH572b]
100 to 1000 | O=P(O)(OC1=Cc2ccccc2Sc2ccc(F)cc21)OC1=Cc2ccccc2Sc2ccc(F)cc21 [CLH572c]
0.1 to 100 | COc1cccc2c1Sc1ccccc1C=C2OP(=O)(O)OC1=Cc2ccccc2Sc2c(O)cccc21 [CLH582]
1000 to 10000 | O=P(O)(OC1=Cc2ccccc2[S+]([O-])c2ccccc21)OC1=Cc2ccccc2S(=O)(=O)c2ccccc21 (stereo not drawn) [CLH584]
0.1 to 100 | COc1ccc2c(c1)Sc1ccccc1C=C2OP(=O)(O)OC1=Cc2ccccc2Sc2cc(OC)ccc21 [CLH596b]
0.1 to 100 | COc1ccc2c(c1)C(OP(=O)(O)OC1=Cc3ccccc3Sc3ccc(OC)cc31)=Cc1ccccc1S2 [CLH596c]
1000 to 10000 | O=P(O)(OC1=Cc2ccccc2S(=O)(=O)c2ccccc21)OC1=Cc2ccccc2S(=O)(=O)c2ccccc21 [CLH600]
100 to 1000 | O=P(O)(OC1=Cc2ccccc2C2(OCCO2)c2ccccc21)OC1=Cc2ccccc2C2(OCCO2)c2ccccc21 [CLH616a]
0.1 to 100 | CCOc1cccc2c1Sc1ccccc1C=C2OP(=O)(O)OC1=Cc2ccccc2Sc2c(OCC)cccc21 [CLH624]
0.1 to 100 | COc1cccc2c1Sc1ccccc1C=C2OP(=O)(O)OC1=Cc2cc(C(C)C(=O)O)ccc2Sc2ccccc21 (stereo not drawn) [CLH638]
100 to 1000 | CC(C)Oc1cccc2c1Sc1ccccc1C=C2OP(=O)(O)OC1=Cc2ccccc2Sc2c(OC(C)C)cccc21 [CLH652]
0.1 to 100 | COc1cc2c(cc1OC)C(OP(=O)(O)OC1=Cc3ccccc3Sc3cc(OC)c(OC)cc31)=Cc1ccccc1S2 [CLH656]
100 to 1000 | COc1ccc(OC)c2c1Sc1ccccc1C=C2OP(=O)(O)OC1=Cc2ccccc2Sc2c(OC)ccc(OC)c21 [CLH656a]
0.1 to 100 | CCOC(=O)C(C)c1ccc2c(c1)C=C(OP(=O)(O)OC1=Cc3ccccc3Sc3c(OC)cccc31)c1ccccc1S2 (stereo not drawn) [CLH666]

IC50 [nM] | SMILES
1000 to 10000 | CC(C(=O)O)c1ccc2c(c1)C=C(OP(=O)(O)OC1=Cc3cc(C(C)C(=O)O)ccc3Sc3ccccc31)c1ccccc1S2 (stereo not drawn) [CLH680]
1000 to 10000 | CCOC(=O)C(C)c1ccc2c(c1)C=C(OP(=O)(O)OC1=Cc3cc(C(C)C(=O)OCC)ccc3Sc3ccccc31)c1ccccc1S2 (stereo not drawn) [CLH736]
100 to 1000 | O=P(O)(O/C1=C/c2ccccc2CCc2ccccc21)O/C1=C/c2ccccc2CCc2ccccc21 [XYF528]
1000 to 10000 | O=P(O)(CC1=Cc2ccccc2Sc2ccccc21)CC1=Cc2ccccc2Sc2ccccc21 [XYF532]
0.1 to 100 | O=P(O)(OC1=Cc2c(F)cccc2Cc2ccccc21)OC1=Cc2c(F)cccc2Cc2ccccc21 [XYF536c]
0.1 to 100 | O=P(O)(OC1=Cc2c(F)cccc2Oc2ccccc21)OC1=Cc2c(F)cccc2Oc2ccccc21 [XYF540]
100 to 1000 | O=P(O)(OC1=Cc2ccsc2Sc2sccc21)OC1=Cc2ccsc2Sc2sccc21 [XYF560]
0.1 to 100 | COc1cccc2c1Oc1ccccc1C=C2OP(=O)(O)OC1=Cc2ccccc2Oc2c(OC)cccc21 [XYF564-2a]
0.1 to 100 | Cc1ccc2c(c1)C(OP(=O)(O)OC1=Cc3ccccc3Sc3ccc(C)cc31)=Cc1ccccc1S2 [XYF564c]
100 to 1000 | O=P(O)(OC1=Cc2ccc(F)cc2Sc2ccccc21)OC1=Cc2ccc(F)cc2Sc2ccccc21 [XYF573]
100 to 1000 | O=P(O)(OC1=Cc2cccc(F)c2Sc2ccccc21)OC1=Cc2cccc(F)c2Sc2ccccc21 [XYF573a]
0.1 to 100 | O=P(O)(OC1=Cc2cc(F)ccc2Sc2ccccc21)OC1=Cc2cc(F)ccc2Sc2ccccc21 [XYF573b]
0.1 to 100 | O=P(O)(OC1=Cc2c(F)cccc2Sc2ccccc21)OC1=Cc2c(F)cccc2Sc2ccccc21 [XYF573c]
100 to 1000 | O=P(O)(OC1=Cc2cccc(Cl)c2Sc2ccccc21)OC1=Cc2cccc(Cl)c2Sc2ccccc21 [XYF604]
0.1 to 100 | O=P(O)(OC1=Cc2cc(Cl)ccc2Sc2ccccc21)OC1=Cc2cc(Cl)ccc2Sc2ccccc21 [XYF604b]
0.1 to 100 | COc1cccc2c1SC1=C(C=C2OP(=O)(O)OC2=CC3=C(SCC3)Sc3c(OC)cccc32)CCS1 [XYF608]
1000 to 10000 | CCc1cccc2c1Sc1cc(F)ccc1C=C2OP(=O)(O)OC1=Cc2ccc(F)cc2Sc2c(CC)cccc21 [XYF628]
0.1 to 100 | CCc1cccc2c1Sc1c(F)cccc1C=C2OP(=O)(O)OC1=Cc2cccc(F)c2Sc2c(CC)cccc21 [XYF628a]
100 to 1000 | CCc1cccc2c1Sc1ccc(F)cc1C=C2OP(=O)(O)OC1=Cc2cc(F)ccc2Sc2c(CC)cccc21 [XYF628b]
0.1 to 100 | CCc1cccc2c1Sc1ccccc1C=C2OP(=O)(O)OC1=Cc2ccccc2Sc2c(CC)cccc21 [XYF628c]
0.1 to 100 | COc1cccc2c1Sc1cc(F)ccc1C=C2OP(=O)(O)OC1=Cc2ccc(F)cc2Sc2c(OC)cccc21 [XYF632]
0.1 to 100 | COc1cccc2c1Sc1c(F)cccc1C=C2OP(=O)(O)OC1=Cc2cccc(F)c2Sc2c(OC)cccc21 [XYF632a]
0.1 to 100 | COc1cccc2c1Sc1ccc(F)cc1C=C2OP(=O)(O)OC1=Cc2cc(F)ccc2Sc2c(OC)cccc21 [XYF632b]
0.1 to 100 | COc1cccc2c1Sc1cccc(F)c1C=C2OP(=O)(O)OC1=Cc2c(F)cccc2Sc2c(OC)cccc21 [XYF632c]
0.1 to 100 | COc1ccc2c(c1)Sc1c(OC)cccc1C(OP(=O)(O)OC1=Cc3ccc(OC)cc3Sc3c(OC)cccc31)=C2 [XYF656]
100 to 1000 | COc1cccc2c1Sc1c(OC)cccc1C(OP(=O)(O)OC1=Cc3cccc(OC)c3Sc3c(OC)cccc31)=C2 [XYF656a]
